Experimental findings from patent publication US7662812B2, “Diazabicyclic aryl derivatives and their use as chinolinergic ligands at nicotinic acetylcholine receptors” (Neurosearch A/S, priority 2005, dated 2010) are described below.

For orientation: IC50 means the concentration needed to halve the response being measured.

In this experiment the target is T1, α7-subtype of nicotinic receptors (Rattus norvegicus, UniProt Q05941).
T1 construct: Cerebral cortices from male Wistar rats (150-250 g) are homogenised; from tissue; host or cells: rat cerebral cortex membrane homogenate
The experiment in a line: In vitro inhibition of 3H-α-bungarotoxine binding in rat brain. As to conditions: rat cerebral cortex homogenate, 3H-α-bungarotoxine 2 nM, 2 hours at 37° C.

T1 sequence (Q05941 23-502): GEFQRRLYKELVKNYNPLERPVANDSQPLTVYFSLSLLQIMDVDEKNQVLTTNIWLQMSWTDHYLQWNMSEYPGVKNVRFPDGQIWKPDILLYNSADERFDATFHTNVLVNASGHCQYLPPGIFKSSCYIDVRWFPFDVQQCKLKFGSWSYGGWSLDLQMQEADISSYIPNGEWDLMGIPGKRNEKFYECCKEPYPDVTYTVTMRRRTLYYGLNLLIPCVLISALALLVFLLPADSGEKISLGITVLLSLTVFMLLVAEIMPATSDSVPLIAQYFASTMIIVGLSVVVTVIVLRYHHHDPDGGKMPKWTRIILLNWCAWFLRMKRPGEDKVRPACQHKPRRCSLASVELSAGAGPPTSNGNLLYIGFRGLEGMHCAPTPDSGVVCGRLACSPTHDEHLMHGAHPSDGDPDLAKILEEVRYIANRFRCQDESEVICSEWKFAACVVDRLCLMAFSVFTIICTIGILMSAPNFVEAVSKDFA

`CN1C2CCC1CN(c1ccc(C#Cc3ccccc3)nn1)C2` [Compound B1, 8-Methyl-3-(6-phenylethynyl-pyridazin-3-yl)-3,8-diaza-bicyclo[3.2.1]octane] came in with an IC50 of 470 nM.
